Converted amounts (≈) assume the structure as drawn. Like-named read-outs stand apart in the source and are kept apart here.
Assays:
E. coli TrxR [1] = molecular target: T1, E. coli TrxR (Escherichia coli (strain K12), UniProt P0A9P4); test: Measurement of Ki of ebselen derivates for E. coli TrxR (Dixon plot, DTNB assay); assay type: biochemical
Description: The detailed inhibition studies using 0.001-4 μM inhibitor were performed in quartz cuvettes and the assay mixture of 500 μL containing E. coli TrxR (6 nM), E. coli Trx (1 or 2 or 4 μM), NADPH (240 μM), and DTNB (1 mM using Zeiss or Ultrospec 3000 Uv-visible spectrophotometer. E. coli TrxR activities were subsequently determined using the standard DTNB assay.
(§1) All the benzisoselenazol-3(2H)-one and bisbenzisoselenazol-3(2H)-one derivatives were tested as potential E. coli TrxR inhibitors by standard DTNB assay. IC50 values were calculated by following the activity of TrxR reducing DTNB by NADPH at 412 nm. The reactions were started by adding 1 mM DTNB to the mixture of 100 nM TrxR, 2 μM Trx, 240 μM NADPH, and different concentration of inhibitor (1-40 μM). […] The reactions were started by adding 6 nM TrxR at room temperature. Inhibition constants (Ki) for all the compounds were measured from Dixon plot (FIGS. 12A-12F), which plots 1/v versus [I] (v=A412/min, I=Inhibitor concentration, FIGS. 12A-12F). Measured IC50 and Ki values (Table 5) indicate that the compounds EbSe 6-9, 12-16 are potent inhibitors for E. coli TrxR. The presence of covalent bond between selenium and nitrogen is so important for the biological property of ebselen derivatives.

Gor^- DHB4 E. coli = test: Bacterial inhibition by ebselen derivates, MIC; conditions: for MIC for Gor^- DHB4 E. coli: LB, 37° C., 4 hrs, OD600 below 10% of DMSO control; for MIC: Escherichia coli, 4 h, read-out: MIC for Gor^- DHB4 E. coli
Description: (§4) E. coli DHB4 strains wt, gshA^−, gor^−, oxyR^− were cultured overnight in LB medium. […] OD 600 was detected and DMSO was used as the control. […] The data are the means of two experiments.

gshA^- DHB4 E. coli = test: Bacterial inhibition by ebselen derivates, MIC; conditions: LB, 37° C., 4 hrs, OD600 below 10% of DMSO control
Description: as §4

E. coli TrxR [2] = molecular target: T1, E. coli TrxR; test: Measurement of IC50 of ebselen derivates for E. coli TrxR (DTNB assay); assay type: biochemical
Description: For screening of different classes of ebselen derivatives as inhibitors of E. coli TrxR, the compounds of different concentration (1-40 μM) were incubated for a minute with mixture containing 100 nM E. coli TrxR, 200 μM NADPH and 2 μM of E. coli Trx. Then 1 mM DTNB was added and the enzyme activity was followed by the initial linear increase at A412 for 5 minutes.
as §1

wild type DHB4 E. coli = test: Bacterial inhibition by ebselen derivates, MIC; conditions: for MIC for wild type DHB4 E. coli: LB, 37° C., 4 hrs, OD600 below 10% of DMSO control; for MIC: Escherichia coli, DHB4E.COLI, 4 h, read-out: MIC for wild type DHB4 E. coli; for sensitivity of gshA^− or gor^− strains compared with wt strain: E. coli DHB4 strains
Description: as §4

E. coli TrxR [3] = molecular target: T1, E. coli TrxR; assay type: biochemical
Description: In FIG. 6A, 10 μM of ebselen (▴) and 10 μM of PZ25 (▪) were used as substrate of 25 nM calf thymus TrxR. In FIG. 6B, 10 μM of PZ25 was used as substrate for 10 nM calf thymus TrxR (◯) and 10 nM of E. coli TrxR (●). Reactions were started by adding enzymes in cuvettes containing 500 μl TE buffer with 100 μM NADPH, of which the consumption were followed by the changes of the absorption at 340 nm against identical blank without enzymes.
Reactions were started by adding enzymes to cuvettes containing 500 μl TE buffer with 100 μM NADPH and 16 μM compounds. The NADPH consumption was followed by the changes of the absorption at 340 nm against identical blank without enzymes.
(§2) The activity of the enzyme was determined at room temperature using an Ultrospec 3000 UV/Visual spectrophotometer (Amersham Biosciences). […] The enzyme-catalysed reactions were followed at 340 nm using the standard calculation of NADPH oxidation to NADP^+ with a molar extinction coefficient of 6200 M^−1 cm^−1 (32, 34). The conditions of the assay of bacterial thioredoxin reductase have been described (32, 34) using either 1 mM DTNB or 160 μM insulin as a substrate. In DTNB coupled assays, 240 μM NADPH and 1 mM DTNB were used in the TE buffer and formation of the TNB was measured at 412 nm, where TNB has an extinction coefficient of 13600 M^−1 cm^−1.
(§3) Further we examined the effect of ebselen in the reduction of disulphide by E. coli Trx and TrxR using both DTNB and insulin as substrates. […] FIGS. 4A and 4B show the effect of ebselen (4A) and ebselen diselenide (4B) on DTNB reduction by E. coli thioredoxin and thioredoxin reductase. Assays in semi-microcuvettes with 0.5 ml solution contained 0.24 mM NADPH, 1 mM DTNB in 50 mM Tris-Cl/1 mM EDTA, pH 7.5 buffer. (A) In the presence of 2 μM (grey filled points), 5 μM (white filled points) and 10 μM (black filled points) of E. coli Trx and 7.6 nM of E. coli TrxR with ebselen at concentrations of zero (squares), 0.5 μM (triangles), 1 μM (rhombus), and 2 μM (rounds), the increase in A412 was measured against a blank. (B) In the presence of 2 μM (grey filled points), 5 μM (white filled points) and 10 μM (black filled points) of E. coli Trx and 10 nM of E. coli TrxR, with ebselen diselenide at concentrations of zero (squares), 1 μM (triangles) and 2 μM (rounds), the increase in A412 was measured against a blank.

E. coli TrxR [4] = molecular target: T1, E. coli TrxR; test: Inhibition of E. coli TrxR reduction of Trx, DTNB coupled assay (Lineweaver-Burk); assay type: biochemical
Description: FIGS. 4A and 4B show the effect of ebselen (FIG. 4A) and ebselen diselenide (FIG. 4B) on DTNB reduction by E. coli thioredoxin and thioredoxin reductase. Assays were contained in 0.50 ml semi-microcuvettes containing 0.24 mM NADPH, 1 mM DTNB in 0.10 M Tris-Cl, pH 8.0, 1 mM EDTA. The increase in A412 was measured against a blank using 10 nM E. coli TrxR in the presence of 2 μM (grey filled points), 5 μM (white filled points), 10 μM (black filled points) E. coli Trx with 0 (squares), 0.5 μM (triangles), 1 μM (rhombus), 2 μM (rounds) of ebselen or ebselen diselenide.
(A) Ebselen concentrations were 0 μM (▴), 0.5 μM (∀), 1 μM (▪) and 2 μM (Δ). […] (B) Ebselen concentrations were 0 μM (▴), 1 μM (▪) and 2 μM (∀).
as §2, §3

Mammalian TrxR [5] = conditions: from reference; cited from earlier work
E. coli Trx-(SH)2 = E. coli Trx-(SH)2 (Escherichia coli (strain K12), UniProt P0AA25); conditions: fluorescence spectroscopy; cited from earlier work
Mammalian TrxR [6] = molecular target: Mammalian TrxR (Bos taurus (Bovine), UniProt O62768); test: Compounds as substrates of mammalian (calf thymus) TrxR, NADPH consumption; assay type: biochemical
Chain of Mammalian TrxR (Bos taurus (Bovine), UniProt O62768) (O62768 whole entry, looked up): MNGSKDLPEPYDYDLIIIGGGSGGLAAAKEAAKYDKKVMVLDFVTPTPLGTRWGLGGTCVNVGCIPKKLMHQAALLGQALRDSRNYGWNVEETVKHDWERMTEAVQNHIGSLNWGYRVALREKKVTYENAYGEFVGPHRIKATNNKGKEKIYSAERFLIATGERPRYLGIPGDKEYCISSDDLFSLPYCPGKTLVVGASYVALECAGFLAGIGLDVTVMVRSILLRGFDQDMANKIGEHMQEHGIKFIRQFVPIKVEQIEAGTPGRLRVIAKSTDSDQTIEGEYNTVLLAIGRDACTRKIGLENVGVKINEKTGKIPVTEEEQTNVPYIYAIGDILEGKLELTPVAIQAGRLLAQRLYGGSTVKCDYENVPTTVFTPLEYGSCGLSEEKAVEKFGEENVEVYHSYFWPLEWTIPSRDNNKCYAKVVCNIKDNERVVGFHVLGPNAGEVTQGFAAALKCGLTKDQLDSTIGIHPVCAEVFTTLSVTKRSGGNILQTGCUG
Description: FIGS. 6A and 6B show ebselen and its sulphur analogue, PZ25, as substrates of calf-thymus TrxR and PZ25 as substrate of E. coli TrxR. In FIG. 6A, 10 μM of ebselen (▴) and 10 μM of PZ25 (▪) were used as substrate of 25 nM calf thymus TrxR. In FIG. 6B, 10 μM of PZ25 was used as substrate for 10 nM calf thymus TrxR (◯) and 10 nM of E. coli TrxR (●). Reactions were started by adding enzymes in cuvettes containing 500 μl TE buffer with 100 μM NADPH, of which the consumption were followed by the changes of the absorption at 340 nm against identical blank without enzymes.
Ebselen diselenide (Δ) and PZ25 disulfide (◯) were reduced with 10 nM calf thymus TrxR, while PZ25 disulphide was reduced by 10 nM of E. coli TrxR (●). Reactions were started by adding enzymes to cuvettes containing 500 μl TE buffer with 100 μM NADPH and 16 μM compounds. The NADPH consumption was followed by the changes of the absorption at 340 nm against identical blank without enzymes.
The activity of the enzyme was determined at room temperature using an Ultrospec 3000 UV/Visual spectrophotometer (Amersham Biosciences). Measurements of TrxR activity from both calf thymus and E. coli were performed in a buffer containing 50 mM Tris-Cl, 1 mM EDTA, pH 7.5, generally with 100 μM NADPH and the indicated amount of the drugs. The enzyme-catalysed reactions were followed at 340 nm using the standard calculation of NADPH oxidation to NADP^+ with a molar extinction coefficient of 6200 M^−1 cm^−1 (32, 34). The conditions of the assay of bacterial thioredoxin reductase have been described (32, 34) using either 1 mM DTNB or 160 μM insulin as a substrate. In DTNB coupled assays, 240 μM NADPH and 1 mM DTNB were used in the TE buffer and formation of the TNB was measured at 412 nm, where TNB has an extinction coefficient of 13600 M^−1 cm^−1.

Staphylococcus aureus = conditions: compared with PZ51; cited from earlier work
H. pylori TrxR = H. pylori TrxR (Helicobacter pylori (strain ATCC 700392 / 26695) (Campylobacter pylori), UniProt P56431); test: Inhibition of H. pylori TrxR by ebsulfur, insulin reduction assay; assay type: biochemical; conditions: 4, 20, and 40 μM
Chain of H. pylori TrxR (P56431 whole entry, looked up): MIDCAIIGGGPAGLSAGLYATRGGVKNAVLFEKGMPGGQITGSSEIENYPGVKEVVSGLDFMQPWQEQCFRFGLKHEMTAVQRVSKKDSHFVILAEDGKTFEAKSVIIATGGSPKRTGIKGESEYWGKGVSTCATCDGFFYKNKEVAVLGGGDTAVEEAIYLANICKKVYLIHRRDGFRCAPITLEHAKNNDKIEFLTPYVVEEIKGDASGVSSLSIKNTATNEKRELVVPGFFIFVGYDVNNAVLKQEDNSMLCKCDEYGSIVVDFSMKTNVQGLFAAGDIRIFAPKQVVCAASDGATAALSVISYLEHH
Description: H. pylori TrxR activity was followed by insulin reduction after 4 μM of H. pylori Trx addition, where a decrease in absorbance at 340 nm represents activity.

H. pylori strains = test: Inhibition of the growth of H. pylori by PZ-25 (ebsulfur); assay type: cell-based
[7] = 6 nM TrxR, Trx 1, 2 or 4 μM, Dixon plot, read-out: Ki for E. coli TrxR
[8] = 100 nM TrxR, 2 μM Trx, 1 mM DTNB, read-out: IC50 for E. coli TrxR

T1 sequence (P0A9P4 2-321 limits assumed): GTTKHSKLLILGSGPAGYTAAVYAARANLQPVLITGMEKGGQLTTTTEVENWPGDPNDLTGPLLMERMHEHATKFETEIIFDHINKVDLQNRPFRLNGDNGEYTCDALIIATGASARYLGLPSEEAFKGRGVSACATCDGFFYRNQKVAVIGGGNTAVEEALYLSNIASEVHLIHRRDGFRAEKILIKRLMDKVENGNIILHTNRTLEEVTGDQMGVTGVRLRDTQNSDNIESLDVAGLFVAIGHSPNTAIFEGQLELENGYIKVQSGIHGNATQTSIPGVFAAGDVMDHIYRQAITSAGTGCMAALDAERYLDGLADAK

## O=c1c2ccccc2[se]n1CCCn1[se]c2ccccc2c1=O [EbSe 15]
E. coli TrxR [1]; [7]
  Ki: 40 nM

## O=c1c2ccccc2[se]n1-c1ccc(Cl)cn1 [EbSe 11]
Gor^- DHB4 E. coli
  MIC for Gor^- DHB4 E. coli: No Inhibition
gshA^- DHB4 E. coli
  MIC for gshA^- DHB4 E. coli: No Inhibition
E. coli TrxR [2]; [8]
  IC50: > 40000 nM
Wild type DHB4 E. coli
  MIC for wild type DHB4 E. coli: No Inhibition

## Cc1cc(Cl)ccc1-n1[se]c2ccccc2c1=O [EbSe 8]
Gor^- DHB4 E. coli
  MIC: 24 µM (≈ 7.74 µg/mL)
Wild type DHB4 E. coli
  MIC: 47 µM (≈ 15.2 µg/mL)

## O=c1c2ccccc2[se]n1CCn1[se]c2ccccc2c1=O [EbSe 14]
Gor^- DHB4 E. coli
  MIC: 19 µM (≈ 8.02 µg/mL)
Wild type DHB4 E. coli
  sensitivity of gshA^− or gor^− strains compared with wt strain: same sensitivity
  MIC: 23 µM (≈ 9.71 µg/mL)

## O=C(Nc1ccccc1)c1ccccc1[Se][Se]c1ccccc1C(=O)Nc1ccccc1 [ebselen diselenide]
E. coli TrxR [3]
  oxidation of NADPH when directly added to E. coli TrxR and NADPH: no oxidations of NADPH
E. coli TrxR [4]
  inhibition of E. coli TrxR (in words): strongly inhibited
E. coli TrxR [4]; Ki (competitive inhibitor of Trx reduction by E. coli TrxR), from Lineweaver-Burk slopes
  Ki: 460 ± 50 nM
E. coli TrxR [4]; read-out: Ki (competitive inhibitor of Trx reduction by E. coli TrxR), from Lineweaver-Burk slopes
  Ki: 460 nM
Mammalian TrxR [5]
  Km: 40 µM
  kcat: 1.32 s⁻¹
  kcat/KM: 33000 M⁻¹ s⁻¹
E. coli Trx-(SH)2
  second-order rate constant of reaction with reduced E. coli Trx: 1700 M⁻¹ s⁻¹

## O=c1c2ccccc2[se]n1CCCCCCn1[se]c2ccccc2c1=O [EbSe 16]
Gor^- DHB4 E. coli
  MIC: 35 µM (≈ 16.7 µg/mL)
Wild type DHB4 E. coli
  sensitivity of gshA^− or gor^− strains compared with wt strain: same sensitivity
  MIC: 20 µM (≈ 9.57 µg/mL)

## O=c1c2ccccc2[se]n1-c1ncccc1[N+](=O)[O-] [EbSe 12]
Gor^- DHB4 E. coli
  MIC for Gor^- DHB4 E. coli: No Inhibition
gshA^- DHB4 E. coli
  MIC for gshA^- DHB4 E. coli: No Inhibition
E. coli TrxR [1]; [7]
  Ki: 250 nM
E. coli TrxR [2]; [8]
  IC50: 3000 nM
Wild type DHB4 E. coli
  MIC for wild type DHB4 E. coli: No Inhibition

## O=C(Nc1ccccc1)c1ccccc1SSc1ccccc1C(=O)Nc1ccccc1 [PZ25 disulphide]
E. coli TrxR [3]; E. coli TrxR
  Km: 27.6 µM
  kcat: 1.67 s⁻¹
  kcat/KM: 60500 M⁻¹ s⁻¹
Mammalian TrxR [6]
  Km: 47 µM
  kcat: 25 s⁻¹
  kcat/KM: 533000 M⁻¹ s⁻¹

## O=C(O)c1ccc(-n2[se]c3ccccc3c2=O)cc1 [EbSe 10]
E. coli TrxR [2]
  IC50: 15000 nM

## O=c1c2ccccc2[se]n1-c1ccc(Cl)cc1 [EbSe 7]
Gor^- DHB4 E. coli
  MIC: 23 µM (≈ 7.1 µg/mL)
Wild type DHB4 E. coli
  MIC: 34 µM (≈ 10.5 µg/mL)

## O=c1c2ccccc2[se]n1-c1ccncc1 [EbSe 13]
Gor^- DHB4 E. coli
  MIC: 24 µM (≈ 6.6 µg/mL)
Wild type DHB4 E. coli
  MIC: 45 µM (≈ 12.4 µg/mL)

## O=c1c2ccccc2sn1-c1ccccc1 [PZ25]
Staphylococcus aureus
  antibacterial activity of the sulphur analogue: lost the antibacterial activity
H. pylori TrxR
  H. pylori TrxR activity: inhibited
E. coli TrxR [3]; E. coli TrxR
  kcat: 11.7 s⁻¹
  kcat/KM: 4.67e+06 M⁻¹ s⁻¹
E. coli TrxR [4]
  inhibition of E. coli TrxR (in words): not inhibitors
Mammalian TrxR [6]
  Km: 2.5 µM
  kcat: 23.33 s⁻¹
  kcat/KM: 9.33e+06 M⁻¹ s⁻¹
H. pylori strains; NCTC11637 strain
  MIC: 1.56 µg/mL (≈ 6.86 µM)
H. pylori strains; strain YS-16
  MIC: 0.39 µg/mL (≈ 1.72 µM)

## O=C(O)c1ccccc1-n1[se]c2ccccc2c1=O [EbSe 9]
Gor^- DHB4 E. coli
  MIC: 31 µM (≈ 9.86 µg/mL)
E. coli TrxR [1]
  Ki: 1200 nM
E. coli TrxR [2]
  IC50: 7500 nM
Wild type DHB4 E. coli
  MIC: 49 µM (≈ 15.6 µg/mL)

Source: US8592468B2, “Bacterial thioredoxin reductase inhibitors and methods for use thereof” (Thioredoxin Systems AB, priority 2006, dated 2013)
